Assay results published in patent US8697739B2, “Bicyclic acetyl-CoA carboxylase inhibitors and uses thereof” (Novartis AG, priority 2010, dated 2014).

Biological target: T1, human acetyl-CoA carboxylase 2 (ACC2) (Homo sapiens, UniProt O00763)
T1 construct: The cDNA encoding amino acids 144 to 2458 of human acetyl-CoA carboxylase 2; made in house; host or cells: Sf9 insect cells (baculovirus, pFastBac1)
Experiment: Acetyl-CoA carboxylase enzyme assay (malonyl-CoA formation by LC/MS/MS)
Assay type: biochemical
Settings: recombinant human ACC2 (aa 144-2458); read-out: IC50 ACC2
How it was run: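 Malonyl-CoA formation was read by LC/MS/MS MRM against a [13C3]-malonyl-CoA internal standard, after acetic acid quench. The enzyme was baculovirus/Sf9-expressed human ACC2 residues 144–2458, given 15 minutes room-temperature compound preincubation in HEPES pH 7.5 buffer with MgCl2, citrate and DTT. Substrate solution held 50 μM acetyl-CoA, 120 μM ATP and 2 mM KHCO3.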

T1 sequence (O00763 144-2458): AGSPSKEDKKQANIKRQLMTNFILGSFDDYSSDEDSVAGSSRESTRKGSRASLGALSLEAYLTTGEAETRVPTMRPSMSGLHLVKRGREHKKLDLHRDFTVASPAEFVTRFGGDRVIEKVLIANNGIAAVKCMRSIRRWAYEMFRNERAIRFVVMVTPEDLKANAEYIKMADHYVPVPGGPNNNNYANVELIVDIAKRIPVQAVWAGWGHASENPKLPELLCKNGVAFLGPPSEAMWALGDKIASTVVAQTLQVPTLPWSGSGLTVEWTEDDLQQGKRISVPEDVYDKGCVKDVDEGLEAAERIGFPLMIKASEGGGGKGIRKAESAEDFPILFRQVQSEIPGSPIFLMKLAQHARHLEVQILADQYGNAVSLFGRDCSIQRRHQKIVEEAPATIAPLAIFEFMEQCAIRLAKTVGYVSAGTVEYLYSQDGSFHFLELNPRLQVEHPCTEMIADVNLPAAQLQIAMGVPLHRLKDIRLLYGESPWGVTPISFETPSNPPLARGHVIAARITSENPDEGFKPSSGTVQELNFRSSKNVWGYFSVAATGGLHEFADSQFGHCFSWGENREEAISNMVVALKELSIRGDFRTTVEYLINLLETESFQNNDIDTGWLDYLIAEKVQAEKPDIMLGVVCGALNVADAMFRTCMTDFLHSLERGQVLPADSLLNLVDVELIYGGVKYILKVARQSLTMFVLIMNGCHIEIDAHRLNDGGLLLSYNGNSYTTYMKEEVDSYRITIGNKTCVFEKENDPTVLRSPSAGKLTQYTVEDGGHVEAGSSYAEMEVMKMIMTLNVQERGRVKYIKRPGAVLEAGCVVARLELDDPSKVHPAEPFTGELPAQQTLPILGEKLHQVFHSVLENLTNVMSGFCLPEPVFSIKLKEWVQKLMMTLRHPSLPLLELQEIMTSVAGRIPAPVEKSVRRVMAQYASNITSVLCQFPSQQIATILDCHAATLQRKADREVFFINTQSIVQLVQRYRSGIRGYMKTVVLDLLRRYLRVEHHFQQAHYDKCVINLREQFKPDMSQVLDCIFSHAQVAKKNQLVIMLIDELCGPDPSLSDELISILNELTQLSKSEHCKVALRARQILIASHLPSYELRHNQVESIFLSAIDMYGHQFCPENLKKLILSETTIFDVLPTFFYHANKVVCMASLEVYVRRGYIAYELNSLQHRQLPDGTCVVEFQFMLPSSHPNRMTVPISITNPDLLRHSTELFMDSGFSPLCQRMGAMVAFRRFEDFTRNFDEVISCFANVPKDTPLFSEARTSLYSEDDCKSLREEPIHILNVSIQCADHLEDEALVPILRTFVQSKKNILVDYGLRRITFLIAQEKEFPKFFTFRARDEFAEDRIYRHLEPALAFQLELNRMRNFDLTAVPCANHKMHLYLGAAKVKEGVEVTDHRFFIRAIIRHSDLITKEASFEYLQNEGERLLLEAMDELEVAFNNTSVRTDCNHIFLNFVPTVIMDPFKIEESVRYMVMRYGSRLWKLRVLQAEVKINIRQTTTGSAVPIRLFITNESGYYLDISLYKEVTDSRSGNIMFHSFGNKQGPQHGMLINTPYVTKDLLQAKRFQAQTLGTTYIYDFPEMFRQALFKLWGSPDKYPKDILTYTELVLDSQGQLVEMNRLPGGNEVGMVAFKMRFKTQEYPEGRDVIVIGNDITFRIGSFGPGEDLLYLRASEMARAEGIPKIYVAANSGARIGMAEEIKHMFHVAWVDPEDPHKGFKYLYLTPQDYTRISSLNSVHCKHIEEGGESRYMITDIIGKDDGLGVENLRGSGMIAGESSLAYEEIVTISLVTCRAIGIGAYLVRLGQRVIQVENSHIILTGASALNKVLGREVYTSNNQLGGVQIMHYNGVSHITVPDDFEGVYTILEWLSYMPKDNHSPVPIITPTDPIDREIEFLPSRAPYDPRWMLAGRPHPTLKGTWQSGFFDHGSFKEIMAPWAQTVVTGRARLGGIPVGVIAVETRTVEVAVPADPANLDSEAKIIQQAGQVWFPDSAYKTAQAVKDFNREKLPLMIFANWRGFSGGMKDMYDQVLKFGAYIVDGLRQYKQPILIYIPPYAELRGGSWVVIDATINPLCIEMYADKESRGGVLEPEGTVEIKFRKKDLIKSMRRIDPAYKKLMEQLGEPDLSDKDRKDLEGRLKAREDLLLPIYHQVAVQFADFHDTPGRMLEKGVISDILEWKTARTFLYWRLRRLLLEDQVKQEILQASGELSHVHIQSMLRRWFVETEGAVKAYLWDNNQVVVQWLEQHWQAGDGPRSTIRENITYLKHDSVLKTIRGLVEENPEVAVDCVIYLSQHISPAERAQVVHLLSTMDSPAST

| SMILES | IC50 |
| --- | --- |
| O=C(Nc1ccccc1)c1ccc(NS(=O)(=O)c2ccc3[nH]c(-c4ccccc4)nc3c2)cc1 [Example 490, N-phenyl-4-(2-phenyl-1H-benzo[d]imidazole-5-sulfonamido)benzamide] | > 139000 nM |
| COc1ccccc1-c1nc2ccc(S(=O)(=O)Nc3ccc(C(=O)OC(C)C)cc3)cc2[nH]1 [Example 492, isopropyl 4-(2-(2-methoxyphenyl)-1H-benzo[d]imidazole-6-sulfonamido)benzoate] | 1350 nM |
| CCCOC(=O)c1ccc(OS(=O)(=O)c2ccc3nc(-c4ccccc4)[nH]c3c2)cc1 [Example 493, propyl 4-(2-phenyl-1H-benzo[d]imidazol-6-ylsulfonyloxy)benzoate] | > 139000 nM |
| CC(=O)c1cccc(-c2nc3ccc(S(=O)(=O)Nc4ccc(C(=O)OC(C)C)cc4)cc3[nH]2)c1 [Example 494, isopropyl 4-(2-(3-acetylphenyl)-1H-benzo[d]imidazole-6-sulfonamido)benzoate] | 1890 nM |
| CC(C)OC(=O)c1ccc(NS(=O)(=O)c2ccc3nc(-c4cccc(F)c4)[nH]c3c2)cc1 [Example 496, isopropyl 4-(2-(3-fluorophenyl)-1H-benzo[d]imidazole-6-sulfonamido)benzoate] | 2340 nM |
| CC(C)OC(=O)c1ccc(NS(=O)(=O)c2ccc3nc(-c4ccc(F)cc4)[nH]c3c2)cc1 [Example 499, isopropyl 4-(2-(4-fluorophenyl)-1H-benzo[d]imidazole-6-sulfonamido)benzoate] | 2110 nM |
| COc1cccc(-c2nc3ccc(S(=O)(=O)Nc4ccc(C(=O)OC(C)C)cc4)cc3[nH]2)c1 [Example 500, isopropyl 4-(2-(3-methoxyphenyl)-1H-benzo[d]imidazole-6-sulfonamido)benzoate] | 1490 nM |
| Cc1cccc(-c2nc3ccc(S(=O)(=O)Nc4ccc(C(=O)OC(C)C)cc4)cc3[nH]2)c1 [Example 501, isopropyl 4-(2-m-tolyl-1H-benzo[d]imidazole-6-sulfonamido)benzoate] | 1660 nM |
| CC(C)OC(=O)c1ccc(NS(=O)(=O)c2ccc3nc(-c4ccccc4F)[nH]c3c2)cc1 [Example 502, isopropyl 4-(2-(2-fluorophenyl)-1H-benzo[d]imidazole-6-sulfonamido)benzoate] | 1280 nM |
| Cc1ccc(-c2nc3ccc(S(=O)(=O)Nc4ccc(C(=O)OC(C)C)cc4)cc3[nH]2)cc1 [Example 504, isopropyl 4-(2-p-tolyl-1H-benzo[d]imidazole-6-sulfonamido)benzoate] | 1740 nM |
| CC(C)OC(=O)c1ccc(NS(=O)(=O)c2ccc3nc(-c4ccc(OC(C)C)cc4)[nH]c3c2)cc1 [Example 505, isopropyl 4-(2-(4-isopropoxyphenyl)-1H-benzo[d]imidazole-6-sulfonamido)benzoate] | 1780 nM |
| CC(C)OC(=O)c1ccc(NS(=O)(=O)c2ccc3nc(-c4ccc(C(C)C)cc4)[nH]c3c2)cc1 [Example 506, isopropyl 4-(2-(4-isopropylphenyl)-1H-benzo[d]imidazole-6-sulfonamido)benzoate] | 1950 nM |
| CC(C)OC(=O)c1ccc(NS(=O)(=O)c2ccc3nc(-c4ccc(Oc5ccccc5)cc4)[nH]c3c2)cc1 [Example 507, isopropyl 4-(2-(4-phenoxyphenyl)-1H-benzo[d]imidazole-6-sulfonamido)benzoate] | 22100 nM |
| CC(C)OC(=O)c1ccc(NS(=O)(=O)c2ccc3nc(-c4ccc(N(C)C)cc4)[nH]c3c2)cc1 [Example 508, isopropyl 4-(2-(4-(dimethylamino)phenyl)-1H-benzo[d]imidazole-6-sulfonamido)benzoate] | 1380 nM |
| CC(C)OC(=O)c1ccc(NS(=O)(=O)c2ccc3nc(-c4cncs4)[nH]c3c2)cc1 [Example 510, isopropyl 4-(2-(thiazol-5-yl)-1H-benzo[d]imidazole-6-sulfonamido)benzoate] | 1810 nM |
| CC(C)OC(=O)c1ccc(NS(=O)(=O)c2ccc3nc(-c4ccc(C(C)(C)C)cc4)[nH]c3c2)cc1 [Example 512, isopropyl 4-(2-(4-tert-butylphenyl)-1H-benzo[d]imidazole-6-sulfonamido)benzoate] | 2290 nM |
| CC(C)(C)c1nnc(-c2ccc(NS(=O)(=O)c3ccc4nc(-c5ccccc5)[nH]c4c3)cc2)o1 [Example 513, N-(4-(5-tert-butyl-1,3,4-oxadiazol-2-yl)phenyl)-2-phenyl-1H-benzo[d]imidazole-6-sulfonamide] | 2880 nM |
| CC(C)OC(=O)c1ccc(NS(=O)(=O)c2ccc3nc(-c4ccncc4)[nH]c3c2)cc1 [Example 515, isopropyl 4-(2-(pyridin-4-yl)-1H-benzo[d]imidazole-6-sulfonamido)benzoate] | 2860 nM |
| COc1ccc(-c2nc3ccc(S(=O)(=O)Nc4ccc(C(=O)OC(C)C)cc4)cc3[nH]2)cc1OC [Example 516, isopropyl 4-(2-(3,4-dimethoxyphenyl)-1H-benzo[d]imidazole-6-sulfonamido)benzoate] | 1210 nM |
| O=S(=O)(Nc1ccc(-c2nnc(-c3ccccc3)o2)cc1)c1ccc2nc(-c3ccccc3)[nH]c2c1 [Example 518, 2-phenyl-N-(4-(5-phenyl-1,3,4-oxadiazol-2-yl)phenyl)-1H-benzo[d]imidazole-6-sulfonamide] | 3580 nM |
| O=S(=O)(Nc1ccc(-c2nnc(C3CCCCC3)o2)cc1)c1ccc2nc(-c3ccccc3)[nH]c2c1 [Example 519, N-(4-(5-cyclohexyl-1,3,4-oxadiazol-2-yl)phenyl)-2-phenyl-1H-benzo[d]imidazole-6-sulfonamide] | 32000 nM |

Compounds with a lower IC50, results first:

| IC50 | SMILES |
| --- | --- |
| 90 nM | Cc1ccccc1-c1cc2ccc(S(=O)(=O)N[C@H]3CC[C@H](C(=O)N4CCOC[C@@H]4C)CC3)cc2[nH]1 [Example 482, N-((1S,4r)-4-((S)-3-methylmorpholine-4-carbonyl)cyclohexyl)-2-o-tolyl-1H-indole-6-sulfonamide] |
| < 10 nM | Cc1c(-c2ccc(CCC(=O)O)cc2)n(C)c2cc(S(=O)(=O)N[C@H]3CC[C@H](C(=O)N4CCOC[C@@H]4C4CC4)CC3)ccc12 [Example 484, 3-(4-(6-(N-((1S,4r)-4-((S)-3-cyclopropylmorpholine-4-carbonyl)cyclohexyl)sulfamoyl)-1,3-dimethyl-1H-indol-2-yl)phenyl)propanoic acid] |
| 43 nM | COCCc1ccc(-c2[nH]c3cc(S(=O)(=O)N[C@H]4CC[C@H](C(=O)N5CCC6(CC5)COC6)CC4)ccc3c2Cl)cc1 [Example 485, N-((1r,4r)-4-(2-oxa-7-azaspiro[3.5]nonane-7-carbonyl)cyclohexyl)-3-chloro-2-(4-(2-methoxyethyl)phenyl)-1H-indole-6-sulfonamide] |
| 75 nM | CCn1c(-c2ccccc2)cc2ccc(S(=O)(=O)N[C@H]3CC[C@H](C(=O)N4CCOC[C@@H]4C)CC3)cc21 [Example 486, 1-ethyl-N-((1S,4r)-4-((S)-3-methylmorpholine-4-carbonyl)cyclohexyl)-2-phenyl-1H-indole-6-sulfonamide] |
| 91 nM | CCOC(=O)CCc1cn(C)c2ccc(S(=O)(=O)N[C@H]3CC[C@H](C(=O)N[C@H](C)c4ccc(F)cc4)CC3)cc12 [Example 487] |
| 1030 nM | CC(C)OC(=O)c1ccc(NS(=O)(=O)c2ccc3[nH]c(-c4ccccc4)nc3c2)cc1 [Example 488, isopropyl 4-(2-phenyl-1H-benzo[d]imidazole-5-sulfonamido)benzoate] |
| 1110 nM | CC(C)(C)OC(=O)c1ccc(NS(=O)(=O)c2ccc3[nH]c(-c4ccccc4)nc3c2)cc1 [Example 489, tert-butyl 4-(2-phenyl-1H-benzo[d]imidazole-5-sulfonamido)benzoate] |
| 1130 nM | CCCCOC(=O)c1ccc(NS(=O)(=O)c2ccc3nc(-c4ccccc4)[nH]c3c2)cc1 [Example 491, butyl 4-(2-phenyl-1H-benzo[d]imidazole-6-sulfonamido)benzoate] |
| 990 nM | CC(=O)c1ccc(-c2nc3ccc(S(=O)(=O)Nc4ccc(C(=O)OC(C)C)cc4)cc3[nH]2)cc1 [Example 495, isopropyl 4-(2-(4-acetylphenyl)-1H-benzo[d]imidazole-6-sulfonamido)benzoate] |
| 762 nM | COc1ccc(-c2nc3ccc(S(=O)(=O)Nc4ccc(C(=O)OC(C)C)cc4)cc3[nH]2)cc1 [Example 497, isopropyl 4-(2-(4-methoxyphenyl)-1H-benzo[d]imidazole-6-sulfonamido)benzoate] |
| 495 nM | CC(=O)Nc1ccc(-c2nc3ccc(S(=O)(=O)Nc4ccc(C(=O)OC(C)C)cc4)cc3[nH]2)cc1 [Example 498, isopropyl 4-(2-(4-acetamidophenyl)-1H-benzo[d]imidazole-6-sulfonamido)benzoate] |
| 819 nM | CC(C)OC(=O)c1ccc(NS(=O)(=O)c2ccc3nc(-c4ccc(O)cc4)[nH]c3c2)cc1 [Example 503, isopropyl 4-(2-(4-hydroxyphenyl)-1H-benzo[d]imidazole-6-sulfonamido)benzoate] |
| 678 nM | CC(C)OC(=O)c1ccc(NS(=O)(=O)c2ccc3nc(-c4ccc(C(=O)O)cc4)[nH]c3c2)cc1 [Example 509, 4-(6-(N-(4-(isopropoxycarbonyl)phenyl)sulfamoyl)-1H-benzo[d]imidazol-2-yl)benzoic acid] |
| 1050 nM | CC(C)OC(=O)c1ccc(NS(=O)(=O)c2ccc3nc(-c4cccc(O)c4)[nH]c3c2)cc1 [Example 511, isopropyl 4-(2-(3-hydroxyphenyl)-1H-benzo[d]imidazole-6-sulfonamido)benzoate] |
| 838 nM | CC(C)OC(=O)c1ccc(NS(=O)(=O)c2ccc3nc(-c4ccc(S(C)(=O)=O)cc4)[nH]c3c2)cc1 [Example 514, isopropyl 4-(2-(4-(methylsulfonyl)phenyl)-1H-benzo[d]imidazole-6-sulfonamido)benzoate] |
| 247 nM | CC(C)OC(=O)c1ccc(NS(=O)(=O)c2ccc3nc(-c4ccc(C(C)O)cc4)[nH]c3c2)cc1 (stereo not shown) [Example 517, isopropyl 4-(2-(4-(1-hydroxyethyl)phenyl)-1H-benzo[d]imidazole-6-sulfonamido)benzoate] |
